Data published in publication PMC12002099, “Recombinant Production and Characterization of Six Ene‐reductases from Penicillium steckii” (Chembiochem, 2025).

Key:
[1] = molecular target: T1, PsOYE3 (Penicillium steckii, UniProt A0A1V6SNM3); assay: UV-Vis flavin spectrum of purified enzyme, FMN release on denaturation; type: binding; conditions: co-purified cofactor
T1 construct: gene PENSTE_c027G02138
T1 sequence (A0A1V6SNM3 1-421): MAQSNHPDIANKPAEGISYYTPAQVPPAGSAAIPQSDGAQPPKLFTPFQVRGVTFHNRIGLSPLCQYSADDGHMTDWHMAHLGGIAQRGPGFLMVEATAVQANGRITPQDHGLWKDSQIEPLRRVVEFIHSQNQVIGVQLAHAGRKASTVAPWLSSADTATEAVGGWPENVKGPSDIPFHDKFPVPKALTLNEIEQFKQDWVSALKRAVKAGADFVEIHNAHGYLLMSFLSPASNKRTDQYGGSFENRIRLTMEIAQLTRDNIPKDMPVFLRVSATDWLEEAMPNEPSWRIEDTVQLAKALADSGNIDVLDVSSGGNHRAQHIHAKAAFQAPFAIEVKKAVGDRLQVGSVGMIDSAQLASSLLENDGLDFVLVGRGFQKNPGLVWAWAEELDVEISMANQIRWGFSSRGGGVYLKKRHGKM

[2] = molecular target: T2, PsOYE2 (Penicillium steckii, UniProt A0A1V6SMJ6); assay: X-ray crystal structure, […] Å; type: binding; conditions: co-purified cofactor; site completed by adjacent protomer
T2 construct: gene PENSTE_c029G02105; tag-free, His-SUMO fusion cut off, expressed in E. coli; homodimer; residues 2-413 seen, C-terminus 414-422 not visible
T2 sequence (A0A1V6SMJ6 1-422): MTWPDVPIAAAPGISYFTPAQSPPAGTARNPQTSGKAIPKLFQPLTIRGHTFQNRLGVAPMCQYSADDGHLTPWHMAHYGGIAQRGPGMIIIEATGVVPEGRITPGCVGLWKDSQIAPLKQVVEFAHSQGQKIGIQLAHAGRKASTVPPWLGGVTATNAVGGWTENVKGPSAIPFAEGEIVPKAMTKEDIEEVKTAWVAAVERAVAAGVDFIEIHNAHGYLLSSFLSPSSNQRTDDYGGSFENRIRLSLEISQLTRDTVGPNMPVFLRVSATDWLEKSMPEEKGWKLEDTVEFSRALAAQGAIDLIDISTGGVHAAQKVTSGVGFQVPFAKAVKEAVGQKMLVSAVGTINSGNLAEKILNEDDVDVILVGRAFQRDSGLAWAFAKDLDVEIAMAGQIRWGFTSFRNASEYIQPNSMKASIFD

[3] = molecular target: T3, PsOYE1 (Penicillium steckii, UniProt A0A1V6T993); assay: UV-Vis flavin spectrum of purified enzyme, FMN release on denaturation; type: binding; conditions: co-purified cofactor
T3 construct: gene PENSTE_c009G01003
T3 sequence (A0A1V6T993 1-408): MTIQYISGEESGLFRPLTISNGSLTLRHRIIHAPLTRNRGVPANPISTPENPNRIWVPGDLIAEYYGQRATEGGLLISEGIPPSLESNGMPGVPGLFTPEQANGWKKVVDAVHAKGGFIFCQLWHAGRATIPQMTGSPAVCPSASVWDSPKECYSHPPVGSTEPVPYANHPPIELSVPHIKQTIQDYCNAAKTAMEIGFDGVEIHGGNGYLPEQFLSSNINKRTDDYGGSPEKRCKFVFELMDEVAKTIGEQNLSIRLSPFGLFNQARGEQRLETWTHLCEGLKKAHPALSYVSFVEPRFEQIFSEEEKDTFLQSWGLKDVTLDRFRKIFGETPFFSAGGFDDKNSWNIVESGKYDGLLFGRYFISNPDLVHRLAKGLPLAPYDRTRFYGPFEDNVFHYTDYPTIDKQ

[4] = molecular target: T4, PsOYE4 (Penicillium steckii, UniProt A0A1V6TQX2); assay: as above; type: binding; conditions: co-purified cofactor
T4 construct: gene PENSTE_c003G03501

[5] = molecular target: T5, PsOYE6 (Penicillium steckii, UniProt A0A1V6SJW2); assay: as above; type: binding; conditions: co-purified cofactor
T5 construct: gene PENSTE_c042G09698
T5 sequence (A0A1V6SJW2 1-370): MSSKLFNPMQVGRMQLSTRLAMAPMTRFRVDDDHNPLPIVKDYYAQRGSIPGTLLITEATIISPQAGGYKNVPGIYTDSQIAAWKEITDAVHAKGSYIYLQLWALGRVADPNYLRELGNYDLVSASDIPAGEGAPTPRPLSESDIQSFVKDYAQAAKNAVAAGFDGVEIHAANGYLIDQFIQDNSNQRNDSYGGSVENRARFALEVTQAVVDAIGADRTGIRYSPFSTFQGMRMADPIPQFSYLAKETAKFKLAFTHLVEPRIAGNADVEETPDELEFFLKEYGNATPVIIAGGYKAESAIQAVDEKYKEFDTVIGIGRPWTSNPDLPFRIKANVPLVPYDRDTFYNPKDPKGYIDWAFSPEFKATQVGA

[6] = molecular target: T4, PsOYE4; assay: steady-state kinetics, NADPH consumption, Michaelis-Menten fit; type: biochemical; conditions: co-substrate p-benzoquinone
From the text: steady-state kinetics, NADPH consumption, Michaelis-Menten fit on PsOYE4

Row | Compound | UV-Vis flavin spectrum of purified enzyme, FMN release on denaturation [1] | X-ray crystal structure, 2.3 Å [2] | UV-Vis flavin spectrum of purified enzyme, FMN release on denaturation [3] | UV-Vis flavin spectrum of purified enzyme, FMN release on denaturation [4] | UV-Vis flavin spectrum of purified enzyme, FMN release on denaturation [5] | Km [6]
1 | Cc1cc2nc3c(=O)[nH]c(=O)nc-3n(C[C@H](O)[C@H](O)[C@H](O)COP(=O)(O)O)c2cc1C [FMN] | Expression and subsequent purification led to reasonably high yields of pure, soluble, and FMN‐bound proteins | The FMN cofactor, situated on the C‐terminal side of the barrel, has interactions | Expression and subsequent purification led to reasonably high yields of pure, soluble, and FMN‐bound proteins | Expression and subsequent purification led to reasonably high yields of pure, soluble, and FMN‐bound proteins | Expression and subsequent purification led to reasonably high yields of pure, soluble, and FMN‐bound proteins | –
2 | NC(=O)C1=CN([C@@H]2O[C@H](COP(=O)(O)OP(=O)(O)OC[C@H]3O[C@@H](n4cnc5c(N)ncnc54)[C@H](OP(=O)(O)O)[C@@H]3O)[C@@H](O)[C@H]2O)C=CC1 [NADPH] | – | – | – | – | – | 300 ± 100 µM
